The values that follow come from PMC11431963 (International Journal of Molecular Sciences, 2024).

The nature of series [1]: Tissue distribution in wild-type and Abcg2-/- male mice. As to conditions: 10 mg/kg intraperitoneal; for concentration at 60 min: male, FVB/N, mouse, in vivo, ip, 10 mg/kg. The text has this: (§1) Animals were handled according to institutional and ARRIVE guidelines complying with European legislation (2010/63/EU). Experimental procedures were approved by the Animal Care and Use Committee of the University of León and the Junta de Castilla y León (ULE_010_2021). Abcg2^-/- and wild-type mice were used, all of >99% FVB/N genetic background, generated and kindly supplied by A. H. Schinkel (The Netherlands Cancer Institute).
(§2) All animals, which were aged from 9 to 14 weeks and weighed 30 g, were kept in a temperature-controlled environment with a cycle of 12 h of light and 12 h of darkness and received a standard diet and water ad libitum.
(§3) Blood samples were collected at different time points (5, 10, 20, 30, 45, 60, 90 and 120 min) by cardiac puncture under anesthesia with isoflurane. Organs were harvested at the 60 min time point. All animals were euthanized by cervical dislocation at the end of the experimental procedure. Heparinized blood samples were centrifuged immediately at 3000× g for 15 min. Plasma and organs were stored at −20 °C until HPLC analysis. Three to ten animals were used for each time point.
(§4) Tissue samples were homogenized with a mixture of 50% water:50% methanol with 0.5% HCl; 1 mL of solution per 0.1 g of organ was used. To each 100 µL of plasma, milk or tissue homogenate, 10 µL of an albendazole-2-aminosulfone solution (100 µg/mL) was added as an internal standard and 400 µL of acetonitrile was also added in order to precipitate proteins. After 10 min of being horizontally vortexed, samples were centrifuged at 10,500× g for 10 min at 4 °C. Supernatants were evaporated to dryness at 40 °C under a stream of nitrogen. Samples were reconstituted in 100 µL of cold methanol and injected into the HPLC system. However, samples for in vitro assays were directly injected into the HPLC system.
(§5) The chromatographic system used for sample analysis consisted of a Waters 2695 separation module and a Waters 2998 UV photodiode array detector. Separation of samples was performed on an analytical reversed-phase column (5 µm particle size, 250 × 4.6 mm, EVO C18 100 Å, Phenomenex®, Torrance, CA, USA). The mobile phase used for in vitro samples was trifluoroacetic acid 0.04%:methanol (40:60), whereas for in vivo samples, it was ammonium acetate 25 mM (pH 5):acetonitrile (85:15). In both cases, the flow rate was set to 1.00 mL/min and UV absorbance was measured at 260.3 nm.

The next series concerns the target T1, murine Abcg2 (Mus musculus, UniProt Q7TMS5).
T1 sequence (Q7TMS5 1-657): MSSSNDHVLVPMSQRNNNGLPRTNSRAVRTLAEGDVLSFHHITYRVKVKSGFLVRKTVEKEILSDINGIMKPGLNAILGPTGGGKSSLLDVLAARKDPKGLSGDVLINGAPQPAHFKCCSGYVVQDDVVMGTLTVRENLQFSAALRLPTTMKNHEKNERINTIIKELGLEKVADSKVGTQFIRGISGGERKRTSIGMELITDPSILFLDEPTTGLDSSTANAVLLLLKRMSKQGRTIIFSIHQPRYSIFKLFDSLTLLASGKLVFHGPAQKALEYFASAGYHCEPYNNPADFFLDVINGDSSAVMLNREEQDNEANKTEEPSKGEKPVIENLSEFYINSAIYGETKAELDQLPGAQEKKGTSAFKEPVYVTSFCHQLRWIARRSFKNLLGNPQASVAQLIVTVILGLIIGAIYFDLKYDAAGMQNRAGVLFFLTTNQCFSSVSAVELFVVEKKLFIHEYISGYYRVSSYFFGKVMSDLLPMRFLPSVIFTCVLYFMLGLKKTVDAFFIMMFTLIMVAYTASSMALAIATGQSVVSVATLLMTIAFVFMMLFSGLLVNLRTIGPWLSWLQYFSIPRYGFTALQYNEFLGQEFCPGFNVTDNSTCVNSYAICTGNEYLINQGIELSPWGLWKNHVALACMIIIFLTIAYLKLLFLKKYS
The series can be described thus: Transepithelial transport assay in MDCK-II cells transduced with murine Abcg2. The format is in vitro ADME. On the procedure:
(§6) For in vitro assays, the polarized cell line Madin-Darby canine kidney (MDCK-II) and their murine Abcg2 and human ABCG2 transduced subclones, which were previously generated and provided by A.H. Schinkel from the Netherlands Cancer Institute (Amsterdam, The Netherlands), were used.
(§7) Transcellular transport assays were performed as previously described, with minor modifications (Figure S1). Transduced MDCK-II cells were seeded as a monolayer on microporous membrane filters (3.0 μm pore size, 24 mm diameter; Transwell® 3414; Costar, Corning, NY, USA) at a density of 1.0 x 10^6 cells/well. Cells were grown for three days with daily medium replacement.
(§8) During the experiment, quality controls were performed in terms of monolayer tightness at the beginning and end of the assay using Millicell®ERS (Millipore, Burlington, MA, USA), and monolayer confluence was tested at the end of the experiment by means of Lucifer Yellow permeability. Transport proficiency was simultaneously checked by testing a typical ABCG2 substrate (danofloxacin 10 μM) (Table S1).
(§9) (to verify that the potential transport was specifically due to ABCG2). […] This volume was replaced with fresh Opti-MEM medium. Finally, at t = 4 h 600 µL aliquots were taken from the apical and basal compartments of each well. All samples were stored at −20 °C until being analyzed by high-performance liquid chromatography (HPLC), as described below.
(§10) The relative efflux transport ratio was calculated as the basal to apical directed transport percentage divided by the apical to basal directed transport percentage at 4 h.
as §4, §5

The target of the next series is T2, human ABCG2 (Homo sapiens, UniProt Q9UNQ0).
T2 sequence (Q9UNQ0 1-655): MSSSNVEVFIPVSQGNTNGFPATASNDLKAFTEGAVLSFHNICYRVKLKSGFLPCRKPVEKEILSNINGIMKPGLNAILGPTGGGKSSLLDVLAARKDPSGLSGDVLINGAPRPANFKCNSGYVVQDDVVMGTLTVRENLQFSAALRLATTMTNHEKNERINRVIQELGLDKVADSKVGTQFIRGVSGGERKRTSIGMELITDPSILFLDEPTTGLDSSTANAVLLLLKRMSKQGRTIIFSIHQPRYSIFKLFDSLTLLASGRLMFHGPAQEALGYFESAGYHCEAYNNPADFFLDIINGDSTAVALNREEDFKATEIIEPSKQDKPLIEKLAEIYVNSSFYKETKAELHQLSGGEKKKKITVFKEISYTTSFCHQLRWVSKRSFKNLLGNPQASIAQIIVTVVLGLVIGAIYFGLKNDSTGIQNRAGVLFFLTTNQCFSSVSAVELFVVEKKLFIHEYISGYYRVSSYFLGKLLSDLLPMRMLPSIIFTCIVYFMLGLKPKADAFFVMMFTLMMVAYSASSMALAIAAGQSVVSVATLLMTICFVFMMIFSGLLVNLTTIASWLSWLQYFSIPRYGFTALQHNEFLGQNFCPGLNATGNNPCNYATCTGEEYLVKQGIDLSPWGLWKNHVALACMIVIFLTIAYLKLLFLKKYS
In words: Transepithelial transport assay in MDCK-II cells transduced with human ABCG2. The format is in vitro ADME. On the procedure: as §6, §7, §8, §9, §10, §4
(§11) The chromatographic system used for sample analysis consisted of a Waters 2695 separation module and a Waters 2998 UV photodiode array detector. Separation of samples was performed on an analytical reversed-phase column (5 µm particle size, 250 × 4.6 mm, EVO C18 100 Å, Phenomenex®, Torrance, CA, USA). […] In both cases, the flow rate was set to 1.00 mL/min and UV absorbance was measured at 260.3 nm.

The subject of a further series is MCF-7. Conditions: breast cancer cell line MCF-7; cited from earlier work.
The test system of series [2] is non-small-cell lung cancer (NSCLC) cell lines. As to conditions: p53-dependent mechanisms; cited from earlier work.
The nature of series [3]: Plasma levels in wild-type and Abcg2-/- male mice after intraperitoneal administration. Conditions: for concentration at 45 min / concentration at 60 min: Plasma concentration.
Excerpt: as §1, §2, §3, §4, §5

The next series relates to Colo-205. Conditions: colorectal cancer cell line Colo-205; cited from earlier work.
The nature of another series: in vivo. As to conditions: female, FVB/N, mouse, ip, 10 mg/kg, 10 mg/kg intraperitoneal.
Excerpt: as §1, §2
Pups of approximately 10 days old were separated from their mothers four hours before the onset of the experiment. […] Milk secretion was stimulated by oxytocin (200 μL of a 1 UI/mL solution), subcutaneously injected to lactating mice 10 min before sample collection. […] Animals were euthanized by cervical dislocation at the end of the experiment. Four to five animals were used for each group.
Heparinized blood samples were centrifuged immediately at 3000× g for 15 min to obtain plasma. Milk and plasma were also stored at −20 °C until HPLC analysis.
as §4, §5

A further series concerns HepG2. As to conditions: liver cancer cell line HepG2; cited from earlier work.
The target in series [4] is T3, Abcg2 (BCRP) (Mus musculus, UniProt Q7TMS5).
T3 sequence (Q7TMS5 1-657): T1 sequence (Q7TMS5 1-657)
The series can be described thus: Transepithelial transport assay in MDCK-II cells transduced with murine Abcg2. Conditions: mouse; danofloxacin 10 µM, positive control, 4 h, MDCK-II mABCG2; read-out: Transport ratio (BA/AB). The format is in vitro ADME. On the procedure: as §6, §7, §8, §9, §10, §4, §5

Series [5] concerns the target T4, ABCG2 (BCRP) (Homo sapiens, UniProt Q9UNQ0).
T4 sequence (Q9UNQ0 1-655): T2 sequence (Q9UNQ0 1-655)
The series can be described thus: Transepithelial transport assay in MDCK-II cells transduced with human ABCG2. The format is in vitro ADME. As to conditions: human; danofloxacin 10 µM, positive control, 4 h, MDCK-II hABCG2; read-out: Transport ratio (BA/AB). On the procedure:
as §6, §7, §8, §9, §10, §4, §11

Another series deals with parental MDCK-II cells. In words: Transepithelial transport assay in parental MDCK-II cells. The format is in vitro ADME, canine. Conditions: danofloxacin 10 µM, positive control, 4 h. On the procedure: as §6, §7, §8, §9
(§12) Lumichrome appearance in the opposite compartment is presented as the fraction of total compound added at the beginning of the experiment and expressed as percentage. The relative efflux transport ratio was calculated as the basal to apical directed transport percentage divided by the apical to basal directed transport percentage at 4 h.

Assay in series [6]: as above
The format is in vitro ADME, canine. Conditions: dog, danofloxacin 10 µM, positive control, read-out: Transport ratio (BA/AB). On the procedure: as §6, §7, §8, §9, §12

[7] abbreviates: male, FVB/N, mouse, in vivo, ip, 10 mg/kg, Abcg2-/- male mice, 10 mg/kg intraperitoneal.
The mark [8] stands for this setting: male, FVB/N, mouse, in vivo, ip, 10 mg/kg, wild-type male mice, 10 mg/kg intraperitoneal.
Where [9] appears, read: danofloxacin 10 µM, positive control, 4 h, MDCK-II mABCG2.
The mark [10] stands for this setting: danofloxacin 10 µM, positive control, 4 h, MDCK-II hABCG2.

A word on the AUC: it is the area under the concentration-time curve, a measure of exposure. Higher therefore signals high exposure.

SMILES strings stand for the structures.

For the compound `Cc1cc2nc3[nH]c(=O)[nH]c(=O)c3nc2cc1C` [lumichrome], the “Tissue distribution (liver, kidney, small intestine, small intestine content, spleen, brain, testis)” value in [1] (male mice, 60 min) is listed as “widely distributed in all organs analyzed”. For the same compound, the concentration at 60 min in series [1] (Concentration in liver, Abcg2-/- male mice) is 340 ± 120 ng/mL; in series [1] (Concentration in liver, wild-type male mice), 150 ± 70 ng/mL; in series [1] (Concentration in small intestine content, Abcg2-/- male mice) it was 310 ± 110 ng/mL; in [1] (Concentration in small intestine content, wild-type male mice), 850 ± 350 ng/mL; in series [1] (Concentration in testis, Abcg2-/- male mice), 180 ± 50 ng/mL; in series [1] (Concentration in testis, wild-type male mice) it was 80 ± 60 ng/mL. In addition, the concentration at 60 min came to 850 ± 500 ng/mL in series [3] (setting [7]) and 400 ± 130 ng/mL in [3] (setting [8]). For the same compound, the “In vitro transport by the transporter (substrate)” value at murine Abcg2 (lumichrome 10 µM, murine variant) is given as “efficiently transported”; on human ABCG2 (lumichrome 10 µM, human variant), “efficiently transported”. Moreover, the “Concentration showing significant cytotoxic activity” value in the series with MCF-7, with Colo-205 and in the series with HepG2 was “higher than 40 µM” throughout. In addition, the “Concentration suppressing growth and inducing apoptosis” value in series [2] is given as “above 25 µM”. In series [3] (Abcg2-/- male mice, 10 mg/kg intraperitoneal), the “Plasma AUC 20–120 min” value is 1290 ± 110 ng·h/mL. In series [3] (male, FVB/N, mouse, in vivo, ip, 10 mg/kg), this compound displayed an AUC of 720 ± 50 ng·h/mL. Moreover, the concentration at 45 min in series [3] (setting [7]) is 1020 ± 260 ng/mL; in series [3] (setting [8]) it was 390 ± 240 ng/mL. For the same compound, the concentration at 30 min amounted to 430 ± 180 ng/mL in the series “in vivo” (Milk concentration, Abcg2-/- lactating female mice); 1750 ± 730 ng/mL in the series “in vivo” (Milk concentration, wild-type lactating female mice); 280 ± 100 ng/mL in the series “in vivo” (Plasma concentration, Abcg2-/- lactating female mice); 310 ± 60 ng/mL in the series “in vivo” (Plasma concentration, wild-type lactating female mice).
As to `CN1C[C@@H]2C[C@H]1CN2c1cc2c(cc1F)c(=O)c(C(=O)O)cn2C1CC1` [danofloxacin], the figures for the efflux ratio at 4 h, 10 µM (on Abcg2 (BCRP) [4]; on ABCG2 (BCRP) [5]; in series [6]) were 9.24 ± 2.59, 2.04 ± 0.57 and 0.96 ± 0.08, respectively. In addition, the “AB transport (%)” value at murine Abcg2 (setting [9]) is on record as 5.30 ± 1.97%; on human ABCG2 (setting [10]), 17.22 ± 2.98%; with parental MDCK-II cells, 22.84 ± 2.99%. The “BA transport (%)” value on murine Abcg2 (setting [9]) was determined as 45.77 ± 6.49%; on human ABCG2 (setting [10]), 33.94 ± 4.07%; in the series with parental MDCK-II cells it was 21.82 ± 1.79%.
`COc1ccc2c3c([nH]c2c1)[C@H](CC(C)C)N1C(=O)[C@H](CCC(=O)OC(C)(C)C)NC(=O)[C@@H]1C3` [Ko143]: the “Inhibition of ABCG2-mediated transport of lumichrome” value on murine Abcg2 (Ko143 1 µM, lumichrome 10 µM, murine Abcg2 subclone) is on record as “completely inhibited”.
